Consider 14 molecules from PMC3806051 (Journal of the American Chemical Society, 2013).

By IC50 is commonly meant the concentration that inhibits the measured activity by half. By Ki is commonly meant the dissociation constant of the complex between target and ligand, obtained from inhibition or displacement.

A short description of data set [1]: Isomerization in binding assay medium. Type of data set: physicochemical.
Data set [2] has as its target recombinant human His-tagged MDM2 protein (residues 1–118) (Homo sapiens, UniProt Q00987). The data set is described as follows: FP-based competitive protein binding assay.
A short description of data set [3]: Interconversion of isomers in MeCN-H2O. It is filed as physicochemical. The following applies: over a period of up to four days.
[4] abbreviates: FP competitive binding to MDM2, incubation 15 min.
Where [5] appears, read: calculated from IC50, FP competitive binding to MDM2, incubation 15 min.

Where two headings read alike, the source gives them in different places.

`CN(C)C(=O)[C@@H]1N[C@@H](CC(C)(C)C)[C@@]2(C(=O)Nc3cc(Cl)ccc32)[C@H]1c1cccc(Cl)c1` [1b, (2′S,3R,4′R,5′R)-6-chloro-4′-(3-chlorophenyl)-N,N-dimethyl-2′-neopentyl-2-oxospiro[indoline-3,3′-pyrrolidine]-5′-carboxamide]: the “remaining of starting isomer” value in data set [1] (binding assay medium, after 12 days) is 93.9%.
Take `CNC(=O)[C@@H]1N[C@H](CC(C)(C)C)[C@]2(C(=O)Nc3cc(Cl)ccc32)[C@H]1c1cccc(Cl)c1` [2a, (2′R,3S,4′R,5′R)-6-chloro-4′-(3-chlorophenyl)-N-methyl-2′-neopentyl-2-oxospiro[indoline-3,3′-pyrrolidine]-5′-carboxamide]: in data set [2], the IC50 came out at 565 ± 57 nM and the Ki was found to be 76.2 ± 7.7 nM.
For `CNC(=O)[C@@H]1N[C@@H](CC(C)(C)C)[C@@]2(C(=O)Nc3cc(Cl)ccc32)[C@H]1c1cccc(Cl)c1` [2b, (2′S,3R,4′R,5′R)-6-chloro-4′-(3-chlorophenyl)-N-methyl-2′-neopentyl-2-oxospiro[indoline-3,3′-pyrrolidine]-5′-carboxamide] the same measures were 30.9 ± 2.9 nM and 3.1 ± 0.3 nM.
Take `CNC(=O)[C@@H]1N[C@H](CC(C)(C)C)[C@]2(C(=O)Nc3cc(Cl)ccc32)[C@H]1c1cccc(Cl)c1F` [4a, (2′R,3S,4′S,5′R)-6-chloro-4′-(3-chloro-2-fluorophenyl)-Nmethyl-2′-neopentyl-2-oxospiro[indoline-3,3′-pyrrolidine]-5′-carboxamide]: the IC50 in data set [2] (setting [4]) was found to be 387 ± 39 nM. Also, the Ki in data set [2] (setting [5]) was 51.8 ± 4.2 nM.
Consider `CNC(=O)[C@@H]1N[C@@H](CC(C)(C)C)[C@@]2(C(=O)Nc3cc(Cl)ccc32)[C@H]1c1cccc(Cl)c1F` [4b, (2′S,3R,4′S,5′R)-6-chloro-4′-(3-chloro-2-fluorophenyl)-Nmethyl-2′-neopentyl-2-oxospiro[indoline-3,3′-pyrrolidine]-5′-carboxamide], for which, in data set [2] (setting [4]), the IC50 was 25.9 ± 1.5 nM. Besides, the Ki in data set [2] (setting [5]) is 2.4 ± 0.2 nM. In addition, in data set [2] (cis-cis isomer b versus trans-cis isomer a), the “times more potent than the respective isomer a (binding to MDM2)” value is recorded as over 15 times.
For the molecule `CC(C)(C)C[C@@H]1N[C@@H](C(=O)NCC[C@H](O)CO)[C@H](c2cccc(Cl)c2F)[C@@]12C(=O)Nc1cc(Cl)ccc12` [5c, (2′S,3S,4′S,5′R)-6-chloro-4′-(3-chloro-2-fluorophenyl)-N-((S)-3,4-dihydroxybutyl)-2′-neopentyl-2-oxospiro[indoline-3,3′-pyrrolidine]-5′-carboxamide], in data set [3], the “isomerization in CH3CN-H2O” value is given as “gradually converted into a mixture of four isomers”. Moreover, the “isomerized into 5b” value in data set [1] (binding assay medium, within 30 min) is on record as “approximately 20%”. For the same molecule, the “isomerization kinetics in binding assay medium” value in data set [1] (room temperature) is “very fast isomerization kinetics”.
Regarding `CC(C)(C)C[C@H]1N[C@@H](C(=O)NCC[C@H](O)CO)[C@H](c2cccc(Cl)c2F)[C@]12C(=O)Nc1cc(Cl)ccc12` [5d, (2′R,3R,4′S,5′R)-6-chloro-4′-(3-chloro-2-fluorophenyl)-N-((S)-3,4-dihydroxybutyl)-2′-neopentyl-2-oxospiro[indoline-3,3′-pyrrolidine]-5′-carboxamide], the “isomerization in CH3CN-H2O” value in data set [3] was “gradually converted into a mixture of four isomers”.
For `CCOC(=O)[C@@H]1N[C@H](CC(C)(C)C)[C@]2(C(=O)Nc3cc(Cl)ccc32)[C@H]1c1cccc(Cl)c1F` [7a, (2′R,3S,4′S,5′R)-ethyl 6-chloro-4′-(3-chloro-2-fluorophenyl)-2′-neopentyl-2-oxospiro[indoline-3,3′-pyrrolidine]-5′-carboxylate], in data set [2], the IC50 stood at 19500 ± 4000 nM and the Ki was 2700 ± 500 nM.
Turning to `CCOC(=O)[C@@H]1N[C@@H](CC(C)(C)C)[C@@]2(C(=O)Nc3cc(Cl)ccc32)[C@H]1c1cccc(Cl)c1F` [7b, (2′S,3R,4′S,5′R)-ethyl 6-chloro-4′-(3-chloro-2-fluorophenyl)-2′-neopentyl-2-oxospiro[indoline-3,3′-pyrrolidine]-5′-carboxylate], in data set [2], the IC50 amounted to 721 ± 79 nM and the Ki turned out to be 97.5 ± 10.7 nM.
For `CC(C)(C)C[C@H]1N[C@@H](C(=O)O)[C@H](c2cccc(Cl)c2F)[C@@]12C(=O)Nc1cc(Cl)ccc12` [8a, (2′R,3S,4′S,5′R)-6-chloro-4′-(3-chloro-2-fluorophenyl)-2′-neopentyl-2-oxospiro[indoline-3,3′-pyrrolidine]-5′-carboxylic acid] the same measures were 498 ± 44 nM and 67 ± 5.9 nM.
For `CC(C)(C)C[C@@H]1N[C@@H](C(=O)O)[C@H](c2cccc(Cl)c2F)[C@]12C(=O)Nc1cc(Cl)ccc12` [8b, (2′S,3R,4′S,5′R)-6-chloro-4′-(3-chloro-2-fluorophenyl)-2′-neopentyl-2-oxospiro[indoline-3,3′-pyrrolidine]-5′-carboxylic acid] the same measures were 55.1 ± 5.2 nM and 6.4 ± 0.6 nM.
In the case of `CC(C)(C)C[C@@H]1N[C@@H](C(N)=O)[C@H](c2cccc(Cl)c2F)[C@]12C(=O)Nc1cc(Cl)ccc12` [9b, (2′S,3R,4′S,5′R)-6-chloro-4′-(3-chloro-2-fluorophenyl)-2′-neopentyl-2-oxospiro[indoline-3,3′-pyrrolidine]-5′-carboxamide], in data set [2], the IC50 amounted to 22.5 ± 2.2 nM and the Ki is 1.9 ± 0.2 nM.
Take `CN(C)C(=O)[C@@H]1N[C@@H](CC(C)(C)C)[C@@]2(C(=O)Nc3cc(Cl)c(F)cc32)[C@H]1c1cccc(Cl)c1` [10b, (2′S,3R,4′R,5′R)-6-chloro-4′-(3-chlorophenyl)-5-fluoro-N,Ndimethyl-2′-neopentyl-2-oxospiro[indoline-3,3′-pyrrolidine]-5′-carboxamide]: the IC50 in data set [2] (setting [4]) is 835 ± 121 nM. For the same molecule, the Ki in data set [2] (setting [5]) is 113 ± 16 nM.
For `CNC(=O)[C@@H]1N[C@@H](CC(C)(C)C)[C@@]2(C(=O)Nc3cc(Cl)c(F)cc32)[C@H]1c1cccc(Cl)c1` [11b, (2′S,3R,4′R,5′R)-6-chloro-4′-(3-chlorophenyl)-5-fluoro-Nmethyl-2′-neopentyl-2-oxospiro[indoline-3,3′-pyrrolidine]-5′-carboxamide], in that order: 112 ± 12 nM and 14.2 ± 1.1 nM.
